Consider 18 compounds from ChEMBL document CHEMBL3992513, “Synthesis, anti-inflammatory, cyclooxygenases inhibitions assays and histopathological study of poly-substituted 1,3,5-triazines: Confirmation of regiospecific pyrazole cyclization by HMBC” (Eur J Med Chem, 2017).

What is called IC50 is the concentration at which inhibition is half-maximal. High values mean a need for much substance, low ones inhibition by little substance. What is called inhibition in vivo is how much of the control response was suppressed.

The target in data set [1] is T1, Prostaglandin G/H synthase 1 (Ovis aries, UniProt P05979).
T1 sequence (P05979 whole entry): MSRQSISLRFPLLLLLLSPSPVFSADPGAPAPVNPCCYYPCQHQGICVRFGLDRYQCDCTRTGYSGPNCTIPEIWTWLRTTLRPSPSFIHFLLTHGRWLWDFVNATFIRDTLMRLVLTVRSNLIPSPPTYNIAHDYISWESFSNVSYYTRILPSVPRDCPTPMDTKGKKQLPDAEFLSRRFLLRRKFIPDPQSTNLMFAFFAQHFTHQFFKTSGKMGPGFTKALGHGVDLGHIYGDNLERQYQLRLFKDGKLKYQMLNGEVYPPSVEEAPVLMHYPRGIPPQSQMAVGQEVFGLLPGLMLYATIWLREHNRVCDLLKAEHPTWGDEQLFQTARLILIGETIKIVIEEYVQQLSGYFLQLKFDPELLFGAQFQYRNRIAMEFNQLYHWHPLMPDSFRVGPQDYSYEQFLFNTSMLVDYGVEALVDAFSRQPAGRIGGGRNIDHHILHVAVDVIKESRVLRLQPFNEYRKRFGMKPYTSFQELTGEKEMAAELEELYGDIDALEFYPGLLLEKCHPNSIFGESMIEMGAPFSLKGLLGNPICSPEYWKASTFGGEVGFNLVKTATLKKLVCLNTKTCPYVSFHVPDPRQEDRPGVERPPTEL
Put plainly: Inhibition of ovine COX1 using arachidonic acid as substrate preincubated for 5 mins followed by substrate addition measured after 2 mins by enzyme immunoassay.

Data set [2] concerns Rattus norvegicus. Nature of the data set: Anti-inflammatory activity in Wistar albino rat assessed as inhibition of carragenan-induced paw edema thickness at 50 mg/kg, po measured after 1 hr relative to control. Type of data set: functional.
In data set [3] the test system is Rattus norvegicus. Put plainly: Anti-inflammatory activity in Wistar albino rat assessed as inhibition of carragenan-induced paw edema thickness at 50 mg/kg, po measured after 3 hrs relative to control. Type of data set: functional.
Data set [4] has as its system Rattus norvegicus. Nature of the data set: Anti-inflammatory activity in Wistar albino rat assessed as inhibition of carragenan-induced paw edema thickness at 50 mg/kg, po measured after 5 hrs relative to control. Type of data set: functional.
The subject of data set [5] is Rattus norvegicus. Nature of the data set: Ulcerogenicity in Wistar albino rat model of carragenan-induced paw edema assessed as degenrative changes with necrotic changes in gastric mucosa at 50 mg/kg, po by hematoxylin and eosin staining based histopathological analysis. Type of data set: toxicity, organism-based. The settings on record: in vivo.
Data set [6] concerns Rattus norvegicus. Put plainly: Ulcerogenicity in Wistar albino rat model of carragenan-induced paw edema assessed as leucocytic infiltration in sub mucosa at 50 mg/kg, po by hematoxylin and eosin staining based histopathological analysis. The settings on record: in vivo. Type of data set: toxicity, organism-based.
For data set [7], the system named is Rattus norvegicus. Put plainly: Ulcerogenicity in Wistar albino rat model of carragenan-induced paw edema assessed as hyalinosis and coagulative necrosis of muscular layer in stomach at 50 mg/kg, po by hematoxylin and eosin staining based histopathological analysis. Type of data set: toxicity, organism-based. The settings on record: in vivo.
Data set [8] concerns Rattus norvegicus. Nature of the data set: Ulcerogenicity in Wistar albino rat model of carragenan-induced paw edema assessed as blood vessel congestion with edema in sub-mucosa at 50 mg/kg, po by hematoxylin and eosin staining based histopathological analysis. Type of data set: toxicity, organism-based. The settings on record: in vivo.
The subject of data set [9] is Rattus norvegicus. Put plainly: Ulcerogenicity in Wistar albino rat model of carragenan-induced paw edema assessed as blood vessel dilation in sub-mucosa at 50 mg/kg, po by hematoxylin and eosin staining based histopathological analysis. Type of data set: toxicity, organism-based. As to conditions: in vivo.
Data set [10] concerns Rattus norvegicus. Nature of the data set: Ulcerogenicity in Wistar albino rat model of carragenan-induced paw edema assessed as corrugations of muscular layer in stomach at 50 mg/kg, po by hematoxylin and eosin staining based histopathological analysis. Type of data set: toxicity, organism-based. As to conditions: in vivo.

`CC(=O)c1ccc(Nc2nc(N3CCOCC3)nc(N3CCOCC3)n2)cc1` registered a concentration for half-maximal inhibition (IC50) in data set [1] of 5.93 µM. Further, the figures for the inhibition in vivo at 50 mg/kg in the data set on Rattus norvegicus [2], in the data set on Rattus norvegicus [3] and in the data set with Rattus norvegicus [4] were 21%, 8% and 0%, respectively.

For `CN(C)/C=C/C(=O)c1ccc(Nc2nc(N3CCOCC3)nc(N3CCOCC3)n2)cc1`, in data set [1], 3.98 µM corresponded to half-maximal inhibition (IC50). Besides, the Activity entry in the data set with Rattus norvegicus [5], with Rattus norvegicus [6] and in the data set on Rattus norvegicus [7] was “Toxic” throughout.

`COc1cc(/C=C/C(=O)c2ccc(Nc3nc(N4CCOCC4)nc(N4CCOCC4)n3)cc2)cc(OC)c1OC` returned an IC50 in [1] of 4.65 µM. Moreover, the inhibition in vivo at 50 mg/kg in the data set with Rattus norvegicus [2] stood at 58%; in the data set with Rattus norvegicus [3], 18%; with Rattus norvegicus [4], 15%. The Activity result in the data set with Rattus norvegicus [5] is reported as “Non-Toxic”; with Rattus norvegicus [6] it was “Non-Toxic”; in the data set on Rattus norvegicus [7], “Non-Toxic”; in the data set on Rattus norvegicus [8], “Toxic”.

The compound `CS(=O)(=O)c1ccc(-n2nccc2-c2ccc(Nc3nc(N4CCOCC4)nc(N4CCOCC4)n3)cc2)cc1` showed a half-maximal inhibitory concentration (IC50) in [1] of 3.87 µM. The Activity entry in the data set with Rattus norvegicus [5] and in the data set on Rattus norvegicus [7] was “Non-Toxic” in each case.

On to `c1cc(-c2ccc(Nc3nc(N4CCOCC4)nc(N4CCOCC4)n3)cc2)[nH]n1`, for which the IC50 in data set [1] is 5.26 µM.

Turning to `c1cc(-c2ccc(Nc3nc(N4CCOCC4)nc(N4CCOCC4)n3)cc2)on1`, the IC50 in data set [1] was 4.33 µM.

Compound `c1ccc(-n2nccc2-c2ccc(Nc3nc(N4CCCCC4)nc(N4CCCCC4)n3)cc2)cc1` gave an IC50 in data set [1] of 6.42 µM. Also, the inhibition in vivo at 50 mg/kg in the data set on Rattus norvegicus [2] stood at 32%; in the data set with Rattus norvegicus [3], 18%; with Rattus norvegicus [4], 2%.

The compound `CS(=O)(=O)c1ccc(-n2nccc2-c2ccc(Nc3nc(N4CCCCC4)nc(N4CCCCC4)n3)cc2)cc1` displayed a half-maximal inhibitory concentration (IC50) in [1] of 7.98 µM. Besides, the inhibition in vivo at 50 mg/kg in the data set on Rattus norvegicus [2] is 36%; in the data set on Rattus norvegicus [3], 38%; in the data set on Rattus norvegicus [4], 20%.

For `CN(C)/C=C/C(=O)c1ccc(Nc2nc(N3CCCCC3)nc(N3CCCCC3)n2)cc1`, in data set [1], inhibition was half-maximal at 6.85 µM (IC50). Besides, the inhibition in vivo at 50 mg/kg in the data set with Rattus norvegicus [2] was determined as 19%; in the data set with Rattus norvegicus [3], 14%; with Rattus norvegicus [4] it was 20%.

For `c1cc(-c2ccc(Nc3nc(N4CCCCC4)nc(N4CCCCC4)n3)cc2)on1`, it took 7.23 µM to reach half-maximal inhibition in data set [1] (IC50). The values for the inhibition in vivo at 50 mg/kg in the data set with Rattus norvegicus [2], with Rattus norvegicus [3] and in the data set on Rattus norvegicus [4] were 51%, 26% and 25%, respectively.

For the compound `c1cc(-c2ccc(Nc3nc(N4CCCCC4)nc(N4CCCCC4)n3)cc2)[nH]n1`, in [1], the IC50 was found to be 4.95 µM. The inhibition in vivo at 50 mg/kg came to 58% in the data set on Rattus norvegicus [2], 24% in the data set with Rattus norvegicus [3] and 5% in the data set with Rattus norvegicus [4].

`c1ccc(-n2nccc2-c2ccc(Nc3nc(N4CCOCC4)nc(N4CCOCC4)n3)cc2)cc1` returned an IC50 in data set [1] of 4.99 µM. The Activity entry in the data set on Rattus norvegicus [5], with Rattus norvegicus [6], with Rattus norvegicus [7] and in the data set on Rattus norvegicus [8] was “Toxic” in each case.

On to `COc1cc(C2CC(c3ccc(Nc4nc(N5CCCCC5)nc(N5CCCCC5)n4)cc3)=NN2C(C)=O)cc(OC)c1OC` (stereo unspecified), for which, in [1], it took 3.52 µM to reach half-maximal inhibition (IC50). For the same compound, the figures for the inhibition in vivo at 50 mg/kg with Rattus norvegicus [2], with Rattus norvegicus [3] and in the data set on Rattus norvegicus [4] were 45%, 34% and 2%, respectively. Also, the Activity entry in the data set with Rattus norvegicus [5] and in the data set with Rattus norvegicus [6] was “Toxic” each time.

On to `COc1cc(/C=C/C(=O)c2ccc(Nc3nc(N4CCCCC4)nc(N4CCCCC4)n3)cc2)cc(OC)c1OC`, for which the IC50 in [1] is 7.25 µM.

Consider `COc1cc(C2CC(c3ccc(Nc4nc(N5CCOCC5)nc(N5CCOCC5)n4)cc3)=NN2C(C)=O)cc(OC)c1OC` (stereo unspecified), for which it took 8.61 µM to reach half-maximal inhibition in data set [1] (IC50).

Take `CC(=O)c1ccc(Nc2nc(N3CCCCC3)nc(N3CCCCC3)n2)cc1`: the 50% inhibitory concentration (IC50) in [1] turned out to be 8.23 µM.

Turning to `Cc1ccc(-c2cc(C(F)(F)F)nn2-c2ccc(S(N)(=O)=O)cc2)cc1` [CELECOXIB], the inhibition in vivo at 50 mg/kg in the data set with Rattus norvegicus [2] stood at 77%; in the data set on Rattus norvegicus [3], 72%; in the data set with Rattus norvegicus [4], 20%. For the same compound, the Activity result with Rattus norvegicus [5], in the data set on Rattus norvegicus [6], in the data set with Rattus norvegicus [9] and in the data set on Rattus norvegicus [10] was “Toxic” each time.

In the case of `COc1ccc2c(c1)c(CC(=O)O)c(C)n2C(=O)c1ccc(Cl)cc1` [INDOMETHACIN], the Activity entry in the data set on Rattus norvegicus [5], with Rattus norvegicus [6], in the data set with Rattus norvegicus [9] and with Rattus norvegicus [7] was “Toxic” in each case.
